From ChEMBL document CHEMBL1137869 (Bioorg Med Chem Lett, 2004) come the findings set out here.

In experiment [1] the target is T1, Platelet-derived growth factor receptor beta (Homo sapiens, UniProt P09619). The experiment is described as follows: In vitro inhibition of Platelet derived growth factor receptor beta autophosphorylation in MG-63 cells with 45% human plasma. In kind it is cell-based.
For experiment [2], the target named is T1, Platelet-derived growth factor receptor beta. The experiment is described as follows: In vitro inhibition of Platelet derived growth factor receptor beta autophosphorylation in MG-63 cells without plasma. In kind it is cell-based.

T1 sequence (P09619 whole entry): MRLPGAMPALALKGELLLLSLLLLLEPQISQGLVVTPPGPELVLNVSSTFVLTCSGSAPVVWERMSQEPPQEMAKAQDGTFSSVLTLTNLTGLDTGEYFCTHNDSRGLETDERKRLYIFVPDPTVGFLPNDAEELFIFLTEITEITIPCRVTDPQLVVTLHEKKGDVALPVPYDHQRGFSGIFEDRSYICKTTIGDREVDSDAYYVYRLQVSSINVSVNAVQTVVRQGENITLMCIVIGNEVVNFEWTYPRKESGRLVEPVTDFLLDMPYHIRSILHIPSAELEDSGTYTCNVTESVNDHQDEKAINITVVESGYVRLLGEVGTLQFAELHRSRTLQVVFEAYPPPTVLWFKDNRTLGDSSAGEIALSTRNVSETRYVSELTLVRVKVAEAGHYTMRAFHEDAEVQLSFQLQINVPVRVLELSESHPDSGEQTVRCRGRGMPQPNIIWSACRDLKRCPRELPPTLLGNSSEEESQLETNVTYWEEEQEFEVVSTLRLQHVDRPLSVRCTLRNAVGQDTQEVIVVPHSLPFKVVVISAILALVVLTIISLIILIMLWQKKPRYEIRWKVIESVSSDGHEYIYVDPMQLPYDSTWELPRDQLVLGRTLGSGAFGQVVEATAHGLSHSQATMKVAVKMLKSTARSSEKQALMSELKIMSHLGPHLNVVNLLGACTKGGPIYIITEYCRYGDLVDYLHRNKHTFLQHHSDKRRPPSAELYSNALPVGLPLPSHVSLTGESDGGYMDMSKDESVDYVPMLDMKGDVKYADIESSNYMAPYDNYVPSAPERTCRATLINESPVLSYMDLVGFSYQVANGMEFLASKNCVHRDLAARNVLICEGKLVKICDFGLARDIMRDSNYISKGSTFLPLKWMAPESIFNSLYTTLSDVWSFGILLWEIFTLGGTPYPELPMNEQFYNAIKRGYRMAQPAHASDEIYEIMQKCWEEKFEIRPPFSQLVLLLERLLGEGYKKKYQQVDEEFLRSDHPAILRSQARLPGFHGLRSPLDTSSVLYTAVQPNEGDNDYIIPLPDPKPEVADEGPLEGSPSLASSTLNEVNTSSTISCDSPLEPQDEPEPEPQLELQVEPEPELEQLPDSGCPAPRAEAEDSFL

As to `COc1cc2c(N3CCN(/C(S)=N\c4ccsc4)CC3)ncnc2cc1OCCN1CCCCC1`, the IC50 – broadly, the concentration at which inhibition is half-maximal – in experiment [1] is 740 nM; in experiment [2], 100 nM.
In the same order, the values of `COc1cc2c(N3CCN(C(=S)NCc4ccc(-c5ccncc5)cc4)CC3)ncnc2cc1OCCN1CCCCC1` are 5040 nM and 9530 nM.
In the same order, the values of `COc1cc2c(N3CCN(/C(S)=N\Cc4ccc5c(c4)OCO5)CC3)ncnc2cc1OCCN1CCCC1` are 160 nM and 5 nM.
The corresponding values for `COc1cc2c(N3CCN(/C(S)=N\c4ccc(C(F)(F)F)nc4)CC3)ncnc2cc1OCCN1CCCCC1` are 1060 nM and 4100 nM.
In the case of `COc1cc2c(N3CCN(/C(=N\Cc4ccc(C(C)C)cc4)NC#N)CC3)ncnc2cc1OCCCN1CCCCC1`, the IC50 in experiment [1] came out at 970 nM; in experiment [2] it was 920 nM.
The corresponding values for `COc1cc2c(N3CCN(C(=NC#N)Nc4ccncc4)CC3)ncnc2cc1OCCCN1CCCCC1` are 17100 nM and 31700 nM.
In the same order, the values of `COc1cc2c(N3CCN(/C(S)=N\c4ccc(Cl)nn4)CC3)ncnc2cc1OCCN1CCCCC1` are 1330 nM and 420 nM.
In the same order, the values of `COc1cc2c(N3CCN(C(=S)Nc4cccnc4)CC3)ncnc2cc1OCCN1CCCCC1` are 4980 nM and 3760 nM.
For the compound `COc1cc2c(N3CCN(C(=S)NCc4ccc(-c5cccnc5)cc4)CC3)ncnc2cc1OCCN1CCCCC1`, the IC50 in experiment [1] is 5190 nM; in experiment [2], 14800 nM.
`COc1cc2c(N3CCN(C(=S)NCc4ccc(C)nc4Cl)CC3)ncnc2cc1OCCN1CCCCC1`: the IC50 in experiment [1] is 350 nM; in experiment [2], 1150 nM.
In the case of `COc1cc2c(N3CCN(/C(S)=N\Cc4cccnc4)CC3)ncnc2cc1OCCCN1CCCCC1`, the IC50 is 320 nM in experiment [1] and 50 nM in experiment [2].
The corresponding values for `COc1cc2c(N3CCN(/C(S)=N\Cc4ccnc(Cl)c4)CC3)ncnc2cc1OCCN1CCCCC1` are 770 nM and 1790 nM.
In the same order, the values of `COc1cc2c(N3CCN(C(=S)NCc4ccc(-c5ccccc5)nc4)CC3)c(C#N)cnc2cc1OCCCN1CCCCC1` are 100 nM and 10 nM.
With `COc1cc2c(N3CCN(C(=S)Nc4ccc(-c5ccccn5)cc4)CC3)ncnc2cc1OCCCN1CCCCC1`, the figures for the IC50 in experiment [1] and in experiment [2] were 100 nM and 220 nM, respectively.
Turning to `COc1cc2c(N3CCN(/C(=N\Cc4ccc(C(F)(F)F)nc4)NC#N)CC3)ncnc2cc1OCCCN1CCCCC1`, the IC50 in experiment [1] turned out to be 2180 nM; in experiment [2], 3420 nM.
`COc1cc2c(N3CCN(/C(=N\c4ccc(-c5ccccn5)cc4)NC#N)CC3)ncnc2cc1OCCCN1CCCCC1`: the IC50 in experiment [1] amounted to 370 nM; in experiment [2], 420 nM.
As for `COc1cc2c(N3CCN(C(=S)Nc4ccncc4)CC3)c(C#N)cnc2cc1OCCCN1CCCCC1`, the IC50 worked out at 130 nM in experiment [1] and 240 nM in experiment [2].
In the same order, the values of `COc1cc2c(N3CCN(C(=S)NCc4ccncc4)CC3)ncnc2cc1OCCCN1CCCCC1` are 2450 nM and 13400 nM.
The corresponding values for `COc1cc2c(N3CCN(C(=S)NCc4ccc(-c5ccccn5)cc4)CC3)ncnc2cc1OCCN1CCCCC1` are 1490 nM and 2130 nM.
In the same order, the values of `COc1cc2c(N3CCN(C(=S)NCc4csc(C)n4)CC3)ncnc2cc1OCCCN1CCCCC1` are 450 nM and 630 nM.
Consider `COc1cc2c(N3CCN(C(=S)NCc4cnc(C)cn4)CC3)ncnc2cc1OCCN1CCOCC1`, for which the IC50 turned out to be 230 nM in experiment [1] and 1360 nM in experiment [2].
In the same order, the values of `COc1cc2c(N3CCN(/C(S)=N\Cc4ccc(-c5ccccc5)nc4)CC3)ncnc2cc1OCCCN1CCCCC1` are 130 nM and 20 nM.
In the case of `COc1cc2c(N3CCN(/C(S)=N\c4ccc(-c5cccc[n+]5[O-])cc4)CC3)ncnc2cc1OCCN1CCCCC1`, the figures for the IC50 in experiment [1] and in experiment [2] were 430 nM and 800 nM, respectively.
In the same order, the values of `COc1cc2c(N3CCN(/C(S)=N\Cc4cccnc4)CC3)ncnc2cc1OCCN1CCCCC1` are 710 nM and 2110 nM.
With `COc1cc2c(N3CCN(/C(=N\Cc4cc(C)on4)NC#N)CC3)ncnc2cc1OCCCN1CCCCC1`, the IC50 in experiment [1] is 2370 nM; in experiment [2], 10500 nM.
For the compound `COc1cc2c(N3CCN(/C(S)=N\c4ccc(C#N)cc4)CC3)c(C#N)cnc2cc1OCCCN1CCCCC1`, the figures for the IC50 in experiment [1] and in experiment [2] were 120 nM and 5 nM, respectively.
In the same order, the values of `COc1cc2c(N3CCN(/C(S)=N\c4nccs4)CC3)ncnc2cc1OCCN1CCCCC1` are 5040 nM and 2000 nM.
In the same order, the values of `COc1cc2c(N3CCN(/C(=N\Cc4ccc5c(c4)OCO5)NC#N)CC3)ncnc2cc1OCCCN1CCCCC1` are 590 nM and 320 nM.
The corresponding values for `COc1cc2c(N3CCN(/C(S)=N\c4ccnc(C#N)c4)CC3)ncnc2cc1OCCN1CCCCC1` are 1790 nM and 1540 nM.
For the compound `COc1cc2c(N3CCN(/C(S)=N\c4ccc(-c5ccccn5)cc4)CC3)c(C#N)cnc2cc1OCCCN1CCCCC1`, the IC50 turned out to be 130 nM in experiment [1] and 220 nM in experiment [2].
The corresponding values for `COc1cc2c(N3CCN(/C(S)=N\c4ccc(Br)cc4)CC3)ncnc2cc1OCCN1CCOCC1` are 540 nM and 180 nM.
For the compound `COc1cc2c(N3CCN(C(=S)NCc4ccc(N)nc4)CC3)ncnc2cc1OCCN1CCCCC1`, the IC50 in experiment [1] was 2930 nM; in experiment [2] it was 5810 nM.
In the same order, the values of `COc1cc2c(N3CCN(/C(S)=N\c4ccc(Br)cc4)CC3)ncnc2cc1OCCN1CCCCC1` are 390 nM and 1010 nM.
In the case of `COc1cc2c(N3CCN(/C(S)=N\Cc4ccc5c(c4)OCO5)CC3)ncnc2cc1OCCN1CCOCC1`, the IC50 is 260 nM in experiment [1] and 100 nM in experiment [2].
In the same order, the values of `COc1cc2c(N3CCN(/C(S)=N\Cc4ccc(C(F)(F)F)nc4)CC3)ncnc2cc1OCCCN1CCOCC1` are 50 nM and 5 nM.
The corresponding values for `COc1cc2c(N3CCN(C(=S)NCc4ccc(C(F)(F)F)nc4)CC3)ncnc2cc1OCCCN1CCCCC1` are 60 nM and 30 nM.
In the same order, the values of `COc1cc2c(N3CCN(C(=S)NCc4csc(-c5ccc(C(F)(F)F)cc5)n4)CC3)ncnc2cc1OCCCN1CCCCC1` are 4470 nM and 3090 nM.
`COc1cc2c(N3CCN(/C(S)=N\c4ccc(-c5ccccc5)nc4)CC3)c(C#N)cnc2cc1OCCCN1CCCCC1`: the IC50 worked out at 280 nM in experiment [1] and 150 nM in experiment [2].
For `COc1cc2c(N3CCN(C(=S)NCc4ccncc4)CC3)ncnc2cc1OCCN1CCCCC1`, the IC50 in experiment [1] came out at 3590 nM; in experiment [2], 12100 nM.
In the case of `COc1cc2c(N3CCN(/C(S)=N\Cc4ccccn4)CC3)ncnc2cc1OCCN1CCCCC1`, in experiment [2], the half-inhibitory concentration (IC50) was 4090 nM.
Regarding `COc1cc2c(N3CCN(C(=S)Nc4ccc(-c5ccccc5)cn4)CC3)ncnc2cc1OCCCN1CCCCC1`, the results for the half-inhibitory concentration (IC50) in experiment [1] and in experiment [2] were 550 nM and 1980 nM, respectively.
Regarding `COc1cc2c(N3CCN(C(=NC#N)Nc4ccc(C(C)(C)C)cc4)CC3)ncnc2cc1OCCCN1CCCCC1`, the IC50 was determined as 1550 nM in experiment [1] and 800 nM in experiment [2].
With `COc1cc2c(N3CCN(C(=S)Nc4ccc(Br)cc4)CC3)ncnc2cc1OCCN1CCCC1`, the values for the IC50 in experiment [1] and in experiment [2] were 470 nM and 350 nM, respectively.
As for `COc1cc2c(N3CCN(C(=S)NCc4ccc(Cl)nc4)CC3)ncnc2cc1OCCCN1CCCCC1`, the IC50 in experiment [1] was 60 nM; in experiment [2] it was 20 nM.
